Measurements from patent US20240180872A1, “METHODS AND COMPOUNDS OF CANNABIDIOL, MELATONIN AND AKBA FOR TREATING PANCREATIC CANCER” (priority 2021, published 2024).

How the values were obtained:
[1] = test system: pancreatic adenocarcinoma associated genes; test: TaqMan Array gene expression in PANC-1, normalized for GAPDH; details: 24 hs, CBD 3.8, MLT 200, AKBA 7.5 micrograms/ml
Description: Total RNA from untreated or CBD, MLT, AKBA alone and in combination treated cell lines was extracted using Rneasy Mini kit (Qiagen, Milan, Italy). One microgram of total RNA from each sample was subjected to reverse transcription in a total volume of 20 μL using the High-Capacity cDNA Archive Kit (Applied Biosystem, Foster City, […], USA) according to the instructions. cDNAs were analyzed by qRT-PCR performed using an IQ5 Multicolor Real time PCR Detection system. Quantitative real-time gene expression was performed with the TaqMan® Array Human Pancreatic Adenocarcinoma 96-well Plate, containing 92 assays to pancreatic adenocarcinoma associated genes and 4 assays to candidate endogenous control genes, was purchased (Thermo Fisher, Grand Island, NY, USA) and used to evaluate the treatments in modulating PDAC-related genes (Table 1). Measurement of different housekeeping genes (GAPDH; HPRT1; GUSB) on the samples was used to normalize mRNA content. The gene expression levels of treated cell lines were expressed as relative fold compared with untreated or vehicle-treated cells.
To elucidate the molecular events induced by CBD, MLT and AKBA alone and in combination, 92 genes involved in PDAC progression and aggressiveness were evaluated by Taqman Array. Both cell lines were treated with CBD, MLT and AKBA alone and in combination, and the molecular pathways of PDAC associated gene were evaluated.
Target mRNA levels were normalized for GAPDH expression.

MIAPaCa-2 cell line = test: Cytotoxicity assay (MTT, 72 hours, daily administration) in MIAPaCa-2; details: Homo sapiens, MIA PaCa-2, read-out: % VIABILITY ± S.D.
Description: (§2) Human pancreatic ductal adenocarcinoma (PANC-1 and MIAPaCa-2) cell lines were purchased by Sigma Aldrich (Milan, Italy) and cultured in DMEM high glucose medium (EuroClone, Milan, Italy) supplemented with 10% of fetal bovine serum (FBS), 2 mM L-glutamine, 100 IU/mL penicillin, 100 mg streptomycin and 1 mM sodium pyruvate. Cell lines were maintained at 37° C. with 5% CO2 and 95% of humidity.
(§3) 3×10^4 cells/mL were seeded in 96-well plates in a final volume of 100 L/well. After one day of incubation, compounds or vehicles, alone or in combination, were added and six replicates were used for each treatment and all experiments were repeated three times. In all the experiments, the treatment was daily added, after washing with fresh medium. After 72 hours cell viability was investigated by adding 0.8 mg/mL of 3-[4,5-dimethylthiazol-2-yl]-2,5 diphenyl tetrazolium bromide (MTT) (Sigma Aldrich) to the media. After 3 h the supernatant was removed, and the pellet of salt crystals was solubilized with 100 μL/well of DMSO. The absorbance of the sample against a background control was measured at 570 nm using an ELISA reader microliter plate (BioTek Instruments, Winooski, VT, USA).
(§4) Cytotoxicity in PDAC cell lines: The effect of CBD, MLT and AKBA in reducing cell viability was evaluated at 72 hours, post daily administration, in PDAC cell lines. Cells were treated with different doses of CBD, MLT and AKBA (up to 1 mg) and percentage of cell viability was evaluated by the MTT assay. […] The compounds were administered daily for 72 hours, as in previous experiments at the desired doses. […] MTT assay was used to analyse the cell cytotoxicity.

PANC-1 cell line = test: Cytotoxicity assay (MTT, 72 hours, daily administration) in PANC-1; details: Homo sapiens, PANC-1, read-out: % VIABILITY ± S.D.
Description: as §2, §3, §4

[2] = test system: PCEM004a endometrial cancer cell line; test: Cytotoxicity assay (MTT, 72 hours, daily administration) in PCEM004a; format: cell-based; details: Homo sapiens, read-out: % VIABILITY ± S.D.
Excerpt: (§1) The combinations were effective in other human tumor cell lines and we tested in glioblastoma cell line and endometrial cancer cell Additional tests include data obtained from two independent experiments, six wells for dose.

[3] = test system: U251 Glioblastoma cell line; test: Cytotoxicity assay (MTT, 72 hours, daily administration) in U251; format: cell-based; details: Homo sapiens, U-251, read-out: % VIABILITY ± S.D.
Excerpt: as §1

## C=C(C)[C@@H]1CCC(C)=C[C@H]1c1c(O)cc(CCCCC)cc1O [CBD, 2-[(1R,6R)-3-methyl-6-prop-1-en-2-ylcyclohex-2-en-1-yl]-5-pentylbenzene-1,3-diol]
[1]; VEI 0.00
  AKT3 mRNA relative expression: 0.00
  ARHGEF7 mRNA relative expression: 0.00
  BCL2 mRNA relative expression: 0.00
  CCND2 mRNA relative expression: 0.00
  CDKN2B mRNA relative expression: 0.35
  CYP2E1 mRNA relative expression: 0.00
  EGF mRNA relative expression: 0.00
  IGF1 mRNA relative expression: 0.00
  IL6 mRNA relative expression: 0.00
  KDR mRNA relative expression: 0.00
  KIT mRNA relative expression: 0.00
  MAPK3 mRNA relative expression: 0.01
  MMP1 mRNA relative expression: 0.00
  MMP3 mRNA relative expression: 0.00
  TGFA mRNA relative expression: 0.71
  TGFB2 mRNA relative expression: 0.08
[1]; VEI 0.01
  JAK2 mRNA relative expression: 0.01
  JAK3 mRNA relative expression: 0.01
  MMP7 mRNA relative expression: 0.01
  MMP9 mRNA relative expression: 0.01
  PK3CA mRNA relative expression: 0.02
  RAC2 mRNA relative expression: 0.01
  RB1 mRNA relative expression: 0.05
  TGFB3 mRNA relative expression: 0.00
[1]; VEI 0.02
  TGFBR1 mRNA relative expression: 0.03
[1]; VEI 0.03
  BRCA2 mRNA relative expression: 0.13
  CDKN2D mRNA relative expression: 0.03
  MDM2 mRNA relative expression: 0.04
  RHOB mRNA relative expression: 0.03
[1]; VEI 0.04
  CDKN2C mRNA relative expression: 0.03
  PK3R1 mRNA relative expression: 0.03
  PTGS2 mRNA relative expression: 0.00
  STATSB mRNA relative expression: 0.03
[1]; VEI 0.05
  MAPK1 mRNA relative expression: 0.06
  SMAD2 mRNA relative expression: 0.06
[1]; VEI 0.06
  CCND1 mRNA relative expression: 0.09
  MAP2K2 mRNA relative expression: 0.07
  PK3CD mRNA relative expression: 0.07
  TGFBR2 mRNA relative expression: 0.01
  VEGFA mRNA relative expression: 0.03
  VEGFB mRNA relative expression: 0.07
[1]; VEI 0.07
  CCNA2 mRNA relative expression: 0.01
  CCNE2 mRNA relative expression: 0.10
  EZF3 mRNA relative expression: 0.07
  SMAD4 mRNA relative expression: 0.07
  SOS1 mRNA relative expression: 0.06
  TGFB1 mRNA relative expression: 0.07
[1]; VEI 0.08
  MAP2K1 mRNA relative expression: 0.00
  MMP2 mRNA relative expression: 0.06
  VEGFC mRNA relative expression: 0.03
[1]; VEI 0.09
  CCNE1 mRNA relative expression: 0.08
  CDK2 mRNA relative expression: 0.13
  KRAS mRNA relative expression: 0.07
  RAC1 mRNA relative expression: 0.09
  REL mRNA relative expression: 0.10
  STAT2 mRNA relative expression: 0.03
[1]; VEI 0.10
  CDKN1B mRNA relative expression: 0.09
  CDKN2A mRNA relative expression: 0.22
  RELA mRNA relative expression: 0.06
[1]; VEI 0.11
  AKT1 mRNA relative expression: 0.09
  PK3CB mRNA relative expression: 0.08
[1]; VEI 0.14
  FIGF mRNA relative expression: 0.09
  TP53 mRNA relative expression: 0.24
[1]; VEI 0.16
  EZF4 mRNA relative expression: 0.16
  NFKB2 mRNA relative expression: 0.12
[1]; VEI 0.17
  EZF1 mRNA relative expression: 0.13
  SMAD3 mRNA relative expression: 0.16
[1]; VEI 0.18
  STAT1 mRNA relative expression: 0.10
[1]; VEI 0.22
  BRAF mRNA relative expression: 0.18
[1]; VEI 0.23
  BIRC5 mRNA relative expression: 0.09
  JAK1 mRNA relative expression: 0.22
[1]; VEI 0.24
  CDK4 mRNA relative expression: 0.21
  EGFR mRNA relative expression: 0.17
[1]; VEI 0.25
  RAF1 mRNA relative expression: 0.01
[1]; VEI 0.27
  CCNB1 mRNA relative expression: 0.31
  ERBB2 mRNA relative expression: 0.01
  SRC mRNA relative expression: 0.03
[1]; VEI 0.31
  GRB2 mRNA relative expression: 0.11
[1]; VEI 0.35
  BCL2L1 mRNA relative expression: 0.21
  HSP90AA1 mRNA relative expression: 0.35
  NFKB1 mRNA relative expression: 0.04
[1]; VEI 0.37
  RHOA mRNA relative expression: 0.30
[1]; VEI 0.41
  ELK1 mRNA relative expression: 0.07
[1]; VEI 0.42
  RELB mRNA relative expression: 0.23
[1]; VEI 0.45
  CDC42 mRNA relative expression: 0.04
[1]; VEI 0.49
  CDKN1A mRNA relative expression: 0.03
[1]; VEI 0.50
  AKT2 mRNA relative expression: 0.45
[1]; VEI 0.53
  HBEGF mRNA relative expression: 0.11
[1]; VEI 1.03
  NOTCH1 mRNA relative expression: 0.02
[1]; VEI 1.38
  STAT6 mRNA relative expression: 0.87
[1]; VEI 4.45
  STAT3 mRNA relative expression: 0.05
MIAPaCa-2 cell line
  viability at 1.9 µg/mL: 74.8 ± 7.2%
  viability at 3.8 µg/mL: 29.5 ± 1.9%
  viability at 7.6 µg/mL: 9.2 ± 0.4%
  viability at 15.2 µg/mL: 5.2 ± 0.4%
PANC-1 cell line
  viability at 1.9 µg/mL: 86.5 ± 7.1%
  viability at 3.8 µg/mL: 66.4 ± 5.5%
  viability at 7.6 µg/mL: 13.1 ± 1.1%
  viability at 15.2 µg/mL: 7.9 ± 0.3%
[2]; CBD 1.9 micrograms/ml
  viability at 1.9 µg/mL: 74.8 ± 7.2%
[2]; CBD 3.8 micrograms/ml
  viability at 3.8 µg/mL: 93.2 ± 4.2%
[2]; CBD 7.6 micrograms/ml
  viability at 7.6 µg/mL: 93.4 ± 5.4%
[2]; CBD 15.2 micrograms/ml
  viability at 15.2 µg/mL: 50.4 ± 3.4%
[3]; CBD 1.9 micrograms/ml
  viability at 1.9 µg/mL: 100 ± 7.1%
[3]; CBD 3.8 micrograms/ml
  viability at 3.8 µg/mL: 100 ± 5.5%
[3]; CBD 7.6 micrograms/ml
  viability at 7.6 µg/mL: 97 ± 10.1%
[3]; CBD 15.2 micrograms/ml
  viability at 15.2 µg/mL: 65.2 ± 4.3%
